Laboratory results taken from PubChem BioAssay AID1963833 (Molecular Pharmacology Branch, DTP, NCI, 2024).

Test system: 883617-216-R-J1-PDC complex spheroid viability
Assay: Anticancer human tumor 883617-216-R-J1-PDC patient-derived bladder carcinoma cell line growth inhibition [POLQ]
Settings: for IC50: curve of first compound; for viability, T/C: stronger effect = lower value
In short: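 Patient-derived tumour cells were co-cultured with HUVEC and mesenchymal stem cells as multicellular spheroids at 37 °C. They were treated with POLQ inhibitors (novobiocin, ART-558, RP6685) alone or combined with other agents. Top concentrations were at or near clinical Cmax (otherwise 10 microM; SN-38 at 1 microM), decreasing in half-log steps.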

[1] = second compound 0.0316 µM, first compound 0.0316 µM
[2] = second compound 0.0316 µM, first compound 0.1 µM
[3] = second compound 0.1 µM, first compound 0.0316 µM
[4] = second compound 0.1 µM, first compound 0.1 µM
[5] = second compound 0.316 µM, first compound 0.0316 µM
[6] = second compound 0.316 µM, first compound 0.1 µM
[7] = second compound 1 µM, first compound 0.0316 µM
[8] = second compound 1 µM, first compound 0.1 µM
[9] = second compound 3.16 µM, first compound 0.0316 µM
[10] = second compound 3.16 µM, first compound 0.1 µM
[11] = second compound 10 µM, first compound 0.0316 µM
[12] = second compound 10 µM, first compound 0.1 µM
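Note: spheroids exposed to compounds for seven days before readout.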
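Throughout, for viability, T/C: 100% = DMSO vehicle control viability.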

## Cn1ncnc1[C@H]1c2n[nH]c(=O)c3cc(F)cc(c23)N[C@@H]1c1ccc(F)cc1 + Cc1cccc(N(C)C(=O)C2C(O)CCN2c2nc(C)cc(C(F)(F)F)c2C#N)c1
Second compound 0.0316 µM
  IC50: > 0.1 µM
Second compound 0.1 µM
  IC50: > 0.1 µM
Second compound 0.316 µM
  IC50: > 0.1 µM
Second compound 1 µM
  IC50: > 0.1 µM
Second compound 3.16 µM
  IC50: > 0.1 µM
Second compound 10 µM
  IC50: > 0.1 µM
Second compound 0.0316 µM, first compound 0.000316 µM
  viability, T/C: 99.2%
Second compound 0.0316 µM, first compound 0.001 µM
  viability, T/C: 101%
Second compound 0.0316 µM, first compound 0.00316 µM
  viability, T/C: 93.4%
Second compound 0.0316 µM, first compound 0.01 µM
  viability, T/C: 78%
[1]
  viability, T/C: 74.4%
[2]
  viability, T/C: 73.7%
Second compound 0.1 µM, first compound 0.000316 µM
  viability, T/C: 96.3%
Second compound 0.1 µM, first compound 0.001 µM
  viability, T/C: 96.3%
Second compound 0.1 µM, first compound 0.00316 µM
  viability, T/C: 96.9%
Second compound 0.1 µM, first compound 0.01 µM
  viability, T/C: 86.6%
[3]
  viability, T/C: 82.9%
[4]
  viability, T/C: 76.7%
Second compound 0.316 µM, first compound 0.000316 µM
  viability, T/C: 95.7%
Second compound 0.316 µM, first compound 0.001 µM
  viability, T/C: 98.3%
Second compound 0.316 µM, first compound 0.00316 µM
  viability, T/C: 94.2%
Second compound 0.316 µM, first compound 0.01 µM
  viability, T/C: 81.1%
[5]
  viability, T/C: 72.8%
[6]
  viability, T/C: 64.2%
Second compound 1 µM, first compound 0.000316 µM
  viability, T/C: 98.1%
Second compound 1 µM, first compound 0.001 µM
  viability, T/C: 98.6%
Second compound 1 µM, first compound 0.00316 µM
  viability, T/C: 88.6%
Second compound 1 µM, first compound 0.01 µM
  viability, T/C: 84.8%
[7]
  viability, T/C: 83%
[8]
  viability, T/C: 74%
Second compound 3.16 µM, first compound 0.000316 µM
  viability, T/C: 109%
Second compound 3.16 µM, first compound 0.001 µM
  viability, T/C: 96.8%
Second compound 3.16 µM, first compound 0.00316 µM
  viability, T/C: 94.8%
Second compound 3.16 µM, first compound 0.01 µM
  viability, T/C: 84.5%
[9]
  viability, T/C: 81.8%
[10]
  viability, T/C: 69.2%
Second compound 10 µM, first compound 0.000316 µM
  viability, T/C: 103%
Second compound 10 µM, first compound 0.001 µM
  viability, T/C: 100%
Second compound 10 µM, first compound 0.00316 µM
  viability, T/C: 98.4%
Second compound 10 µM, first compound 0.01 µM
  viability, T/C: 90.8%
[11]
  viability, T/C: 91.3%
[12]
  viability, T/C: 80.6%

## CCc1cc2c(N3CCc4c(cc(Cn5ccnc5)cc4-c4cn(C)nc4C(F)(F)F)C3=O)ccnc2c(OC)n1 + Nc1ccc(C#CCN(C(=O)Cc2ncc(C(F)(F)F)cc2C(F)(F)F)c2ccc(F)cc2)nn1
Second compound 0.0316 µM
  IC50: 9.57 µM
Second compound 0.1 µM
  IC50: 9.93 µM
Second compound 0.316 µM
  IC50: > 10 µM
Second compound 1 µM
  IC50: > 10 µM
Second compound 3.16 µM
  IC50: > 10 µM
Second compound 10 µM
  IC50: > 10 µM
[1]
  viability, T/C: 109%
[2]
  viability, T/C: 97.5%
Second compound 0.0316 µM, first compound 0.316 µM
  viability, T/C: 91.4%
Second compound 0.0316 µM, first compound 1 µM
  viability, T/C: 104%
Second compound 0.0316 µM, first compound 3.16 µM
  viability, T/C: 80.4%
Second compound 0.0316 µM, first compound 10 µM
  viability, T/C: 48.8%
[3]
  viability, T/C: 91.1%
[4]
  viability, T/C: 109%
Second compound 0.1 µM, first compound 0.316 µM
  viability, T/C: 103%
Second compound 0.1 µM, first compound 1 µM
  viability, T/C: 105%
Second compound 0.1 µM, first compound 3.16 µM
  viability, T/C: 86%
Second compound 0.1 µM, first compound 10 µM
  viability, T/C: 49.8%
[5]
  viability, T/C: 98.8%
[6]
  viability, T/C: 107%
Second compound 0.316 µM, first compound 0.316 µM
  viability, T/C: 102%
Second compound 0.316 µM, first compound 1 µM
  viability, T/C: 91.1%
Second compound 0.316 µM, first compound 3.16 µM
  viability, T/C: 84.8%
Second compound 0.316 µM, first compound 10 µM
  viability, T/C: 59%
[7]
  viability, T/C: 95.6%
[8]
  viability, T/C: 104%
Second compound 1 µM, first compound 0.316 µM
  viability, T/C: 97.9%
Second compound 1 µM, first compound 1 µM
  viability, T/C: 94.9%
Second compound 1 µM, first compound 3.16 µM
  viability, T/C: 88.9%
Second compound 1 µM, first compound 10 µM
  viability, T/C: 61%
[9]
  viability, T/C: 109%
[10]
  viability, T/C: 97.7%
Second compound 3.16 µM, first compound 0.316 µM
  viability, T/C: 110%
Second compound 3.16 µM, first compound 1 µM
  viability, T/C: 102%
Second compound 3.16 µM, first compound 3.16 µM
  viability, T/C: 82.3%
Second compound 3.16 µM, first compound 10 µM
  viability, T/C: 69.6%
[11]
  viability, T/C: 105%
[12]
  viability, T/C: 99.6%
Second compound 10 µM, first compound 0.316 µM
  viability, T/C: 107%
Second compound 10 µM, first compound 1 µM
  viability, T/C: 108%
Second compound 10 µM, first compound 3.16 µM
  viability, T/C: 82.9%
Second compound 10 µM, first compound 10 µM
  viability, T/C: 57.8%
